The results in this text go back to ChEMBL document CHEMBL3856285, “Recent progress in the identification of adenosine monophosphate-activated protein kinase (AMPK) activators” (Bioorg Med Chem Lett, 2016).

Test [1] addresses T1, 5'-AMP-activated protein kinase catalytic subunit alpha-2/beta-1/gamma-2 (Homo sapiens, UniProt P54646+Q9UGJ0+Q9Y478). Briefly: Activation of recombinant human His-tagged AMPK alpha2 (2 to 552 residues)/beta1 (2 to 270 residues)/gamma2 (2 to 569 residues) expressed in baculovirus infected sf21 cells preincubated for 30 mins followed by biotinylated ACC-CREBp peptide substrate addition measured after 45 mins by HTRF assay. For orientation: Time-resolved FRET reads energy transfer from a long-lived donor to a nearby acceptor.

In test [2] the target is T2, 5'-AMP-activated protein kinase subunit beta-1 (Homo sapiens) (UniProt Q9Y478).
T2 sequence (whole entry): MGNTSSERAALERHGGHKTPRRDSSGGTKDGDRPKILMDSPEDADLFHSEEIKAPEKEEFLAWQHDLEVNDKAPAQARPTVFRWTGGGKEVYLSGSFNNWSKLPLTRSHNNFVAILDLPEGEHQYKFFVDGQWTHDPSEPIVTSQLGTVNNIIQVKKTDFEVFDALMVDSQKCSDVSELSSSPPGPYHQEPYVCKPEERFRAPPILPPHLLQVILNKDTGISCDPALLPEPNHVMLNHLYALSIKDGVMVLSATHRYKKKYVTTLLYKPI
Nature of the test: Activation of AMPK beta1 in human HepG2 cells assessed as increase in phospho-ACC1 level at 1 uM after 2 hrs by ELISA relative to control. The class given is cell-based.

The target of test [3] is T3, 5'-AMP-activated protein kinase subunit beta-2 (Mus musculus) (UniProt Q6PAM0).
T3 sequence (whole entry): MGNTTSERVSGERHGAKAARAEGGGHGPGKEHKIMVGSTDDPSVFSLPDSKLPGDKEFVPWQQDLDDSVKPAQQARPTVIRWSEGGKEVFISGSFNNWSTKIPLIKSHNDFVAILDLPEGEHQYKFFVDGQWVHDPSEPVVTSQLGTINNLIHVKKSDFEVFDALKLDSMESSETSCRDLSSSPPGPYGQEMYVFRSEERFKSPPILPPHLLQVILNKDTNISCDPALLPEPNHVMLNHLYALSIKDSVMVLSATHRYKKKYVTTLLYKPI
Nature of the test: Activation of AMPK beta2 in mouse C2C12 myotubes assessed as increase in phospho-ACC1 level at 1 uM after 2 hrs by ELISA relative to control. Background: ELISA stands for enzyme-linked immunosorbent assay.

Test [4] has as its target T1, 5'-AMP-activated protein kinase catalytic subunit alpha-2/beta-1/gamma-2. Briefly: Activation of recombinant human His-tagged AMPK alpha2 (2 to 552 residues)/beta1 (2 to 270 residues)/gamma2 (2 to 569 residues) expressed in baculovirus infected sf21 cells preincubated for 30 mins followed by biotinylated ACC-CREBp peptide substrate addition measured after 45 mins by HTRF assay relative to AMP.

Test [5] has as its target T4, AMP-activated protein kinase (AMPK) alpha-1/beta-1/gamma-1 (Homo sapiens, UniProt P54619+Q13131+Q9Y478). Nature of the test: Activation of full length human phosphorylated His-tagged AMPK alpha1/beta1/gamma1 expressed in Escherichia coli BL21-CodonPlus (DE3)-RIPL using SAMS peptide substrate preincubated for 15 mins followed by PP2A addition for 90 mins followed by substrate addition measured after 60 mins in presence of [33P]ATP by scintillation counting method.

The target in test [6] is T5, AMP-activated protein kinase (AMPK) alpha-1/beta-1/gamma-1 (Homo sapiens) (UniProt P54619+Q9Y478+Q13131). Nature of the test: Activation of full length human phosphorylated His-tagged AMPK alpha1/beta1/gamma1 expressed in Escherichia coli BL21-CodonPlus (DE3)-RIPL using SAMS peptide substrate preincubated for 15 mins followed by PP2A addition for 90 mins followed by substrate addition measured after 60 mins in presence of [33P]ATP by scintillation counting method relative to AMP.

Test [7] has as its target T4, AMP-activated protein kinase (AMPK) alpha-1/beta-1/gamma-1. Briefly: Binding affinity for full length human N-terminal His/BAP-tagged AMPK alpha1/beta1/gamma1 expressed in Escherichia coli BL21-CodonPlus by surface plasmon resonance method. (In general: SPR reads the build-up and loss of mass on a sensor chip optically.)
The target is the same in test [8]. Nature of the test: Activation of full length human recombinant N-terminal GST-tagged AMPK alpha1/beta1/gamma1 expressed in baculovirus infected High Five cells using NH2-HMRSAMSGLHLVKRR CONH2 substrate after 60 mins by ADP-Glo kinase assay. Also noted: species or system BTI-TN-5B1-4.
For test [9] the target is unchanged. Nature of the test: Activation of human recombinant AMPK alpha1/beta1/gamma1 expressed in Escherichia coli BL21-CodonPlus (DE3)-RIPL using SAMS peptide after 10 mins in presence of [gamma33P]ATP by scintillation counting.
The target of test [10] is T6, 5'-AMP-activated protein kinase subunit beta-1 (Homo sapiens, UniProt Q9Y478).
T6 sequence (Q9Y478 whole entry): T2 sequence (whole entry)
Briefly: Activation of human recombinant AMPK beta1 expressed in African green monkey COS7 cells or baculovirus infected insect cells assessed as increase in biotinylated […] (1 to 120 residues) peptide phosphorylation at Ser-79 residue measured after 60 mins by Alphascreen assay. Set-up: species or system COS-7.

The target of test [11] is T7, 5'-AMP-activated protein kinase subunit beta-2 (Homo sapiens, UniProt O43741).
T7 sequence (O43741 whole entry): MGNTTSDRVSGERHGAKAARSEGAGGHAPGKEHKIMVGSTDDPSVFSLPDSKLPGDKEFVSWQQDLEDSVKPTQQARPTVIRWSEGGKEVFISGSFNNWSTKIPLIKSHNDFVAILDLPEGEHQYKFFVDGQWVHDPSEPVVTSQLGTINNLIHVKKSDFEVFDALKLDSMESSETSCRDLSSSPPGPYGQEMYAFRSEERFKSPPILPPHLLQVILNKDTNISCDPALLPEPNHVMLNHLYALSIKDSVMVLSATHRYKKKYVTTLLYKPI
Briefly: Activation of human recombinant AMPK beta2 expressed in African green monkey COS7 cells or baculovirus infected insect cells assessed as increase in biotinylated […] (1 to 120 residues) peptide phosphorylation at Ser-79 residue measured after 60 mins by Alphascreen assay. Set-up: species or system COS-7.

Test [12] deals with AMP-activated protein kinase, AMPK. Briefly: Activation of recombinant AMPK (unknown origin) after 30 mins in presence of [gamma33P]ATP by scintillation proximity assay. Also noted: species or system Homo sapiens.
Test [13] is described as follows: Activation of rat liver AMPK assessed as increase in 33P-phosphorylation of SAMS peptide.
Test [14] concerns the target T4, AMP-activated protein kinase (AMPK) alpha-1/beta-1/gamma-1. Briefly: Activation of human recombinant AMPK alpha1/beta1/gamma1 expressed in African green monkey COS7 cells assessed as increase in biotinylated […] (1 to 120 residues) peptide phosphorylation at Ser-79 residue measured after 60 mins by Alphascreen assay. The class given is cell-based, COS-7.
The target of test [15] is T5, AMP-activated protein kinase (AMPK) alpha-1/beta-1/gamma-1 (Homo sapiens). Nature of the test: Activation of human recombinant AMPK alpha1/beta1/gamma1 expressed in African green monkey COS7 cells assessed as increase in biotinylated […] (1 to 120 residues) peptide phosphorylation at Ser-79 residue measured after 60 mins by Alphascreen assay relative to control. In kind it is cell-based. As to conditions: COS-7.

Test [16] has as its target AMPK alpha2/beta1/gamma1 (Homo sapiens, UniProt P54619+P54646+Q9Y478). Briefly: Activation of human recombinant AMPK alpha2/beta1/gamma1 expressed in African green monkey COS7 cells assessed as increase in biotinylated […] (1 to 120 residues) peptide phosphorylation at Ser-79 residue measured after 60 mins by Alphascreen assay. The class given is cell-based, COS-7.
The target of test [17] is AMPK alpha2/beta1/gamma1 (Homo sapiens) (UniProt P54646+P54619+Q9Y478). Briefly: Activation of human recombinant AMPK alpha2/beta1/gamma1 expressed in African green monkey COS7 cells assessed as increase in biotinylated […] (1 to 120 residues) peptide phosphorylation at Ser-79 residue measured after 60 mins by Alphascreen assay relative to control. In kind it is cell-based. The settings on record: COS-7.

The target in test [18] is T8, AMPK alpha1/beta2/gamma1 (Homo sapiens, UniProt O43741+P54619+Q13131). Nature of the test: Activation of human recombinant AMPK alpha1/beta2/gamma1 expressed in African green monkey COS7 cells assessed as increase in biotinylated […] (1 to 120 residues) peptide phosphorylation at Ser-79 residue measured after 60 mins by Alphascreen assay. In kind it is cell-based, COS-7.
Target sequence in this assay (P54619 whole entry, one chain of several, the tested form may be a part): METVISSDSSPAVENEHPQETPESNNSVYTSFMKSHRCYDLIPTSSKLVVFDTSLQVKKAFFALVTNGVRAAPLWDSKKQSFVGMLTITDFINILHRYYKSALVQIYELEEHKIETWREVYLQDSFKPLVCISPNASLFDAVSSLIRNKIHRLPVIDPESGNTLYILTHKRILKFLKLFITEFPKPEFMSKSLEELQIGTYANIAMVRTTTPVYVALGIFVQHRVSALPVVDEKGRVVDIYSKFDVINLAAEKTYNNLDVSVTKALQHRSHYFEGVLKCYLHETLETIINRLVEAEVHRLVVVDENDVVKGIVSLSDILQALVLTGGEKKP
Target sequence in this assay (Q13131 whole entry, one chain of several, the tested form may be a part): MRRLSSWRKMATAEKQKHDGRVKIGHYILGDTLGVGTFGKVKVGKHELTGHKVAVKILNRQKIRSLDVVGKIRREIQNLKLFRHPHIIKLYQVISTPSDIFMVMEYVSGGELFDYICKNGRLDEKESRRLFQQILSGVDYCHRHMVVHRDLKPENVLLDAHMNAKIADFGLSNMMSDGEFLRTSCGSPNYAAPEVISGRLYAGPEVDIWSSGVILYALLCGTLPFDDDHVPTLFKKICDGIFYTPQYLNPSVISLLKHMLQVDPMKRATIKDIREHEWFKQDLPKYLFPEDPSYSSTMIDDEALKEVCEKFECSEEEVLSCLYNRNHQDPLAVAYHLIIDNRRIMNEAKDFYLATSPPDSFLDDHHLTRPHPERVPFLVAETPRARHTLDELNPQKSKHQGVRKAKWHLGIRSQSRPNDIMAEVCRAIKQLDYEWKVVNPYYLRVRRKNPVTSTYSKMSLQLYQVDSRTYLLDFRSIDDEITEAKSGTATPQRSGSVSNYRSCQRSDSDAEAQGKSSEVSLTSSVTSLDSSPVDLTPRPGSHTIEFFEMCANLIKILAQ

Test [19] has as its target T8, AMPK alpha1/beta2/gamma1. Nature of the test: Activation of human recombinant AMPK alpha1/beta2/gamma1 expressed in African green monkey COS7 cells assessed as increase in biotinylated […] (1 to 120 residues) peptide phosphorylation at Ser-79 residue measured after 60 mins by Alphascreen assay relative to control. In kind it is cell-based. The settings on record: COS-7.

Test [20] addresses AMPK alpha2/beta2/gamma1 (Homo sapiens, UniProt O43741+P54619+P54646). Briefly: Activation of human recombinant AMPK alpha2/beta2/gamma1 expressed in African green monkey COS7 cells assessed as increase in biotinylated […] (1 to 120 residues) peptide phosphorylation at Ser-79 residue measured after 60 mins by Alphascreen assay. In kind it is cell-based, COS-7.
Test [21] concerns the target AMPK alpha2/beta2/gamma1 (Homo sapiens) (UniProt P54646+O43741+P54619). Briefly: Activation of human recombinant AMPK alpha2/beta2/gamma1 expressed in African green monkey COS7 cells assessed as increase in biotinylated […] (1 to 120 residues) peptide phosphorylation at Ser-79 residue measured after 60 mins by Alphascreen assay relative to control. The class given is cell-based. As to conditions: COS-7.

The target of test [22] is AMPK alpha2/beta2/gamma3 (Homo sapiens, UniProt O43741+P54646+Q9UGI9). Briefly: Activation of human recombinant AMPK alpha2/beta2/gamma3 expressed in African green monkey COS7 cells assessed as increase in biotinylated […] (1 to 120 residues) peptide phosphorylation at Ser-79 residue measured after 60 mins by Alphascreen assay. The class given is cell-based, COS-7.
Test [23] has as its target AMPK alpha2/beta2/gamma3 (Homo sapiens) (UniProt P54646+O43741+Q9UGI9). Nature of the test: Activation of human recombinant AMPK alpha2/beta2/gamma3 expressed in African green monkey COS7 cells assessed as increase in biotinylated […] (1 to 120 residues) peptide phosphorylation at Ser-79 residue measured after 60 mins by Alphascreen assay relative to control. The class given is cell-based. The settings on record: COS-7.

For test [24], the target named is T5, AMP-activated protein kinase (AMPK) alpha-1/beta-1/gamma-1 (Homo sapiens). Nature of the test: (§1) Activation of human recombinant AMPK GST-tagged alpha1/Myc-tagged beta1/HA-tagged gamma1 expressed in African green monkey COS7 cells assessed as increase in SAMS peptide phosphorylation measured after 10 mins in presence of [gamma33P]ATP by scintillation counting method relative to control. As to conditions: COS-7. The class given is cell-based.

Test [25] has as its target T4, AMP-activated protein kinase (AMPK) alpha-1/beta-1/gamma-1. The description is as §1. In kind it is cell-based, COS-7.
Test [26] concerns the target AMP-activated protein kinase, AMPK (Homo sapiens) (UniProt P54646+O43741+P54619+Q9UGJ0+Q9Y478+Q13131+Q9UGI9). Nature of the test: Activation of AMPK (unknown origin) assessed as residual activity at 30 uM using AMARAA peptide after 30 mins by DELFIA assay relative to control.
For test [27], the system named is Mus musculus. Nature of the test: Antidiabetic activity in […] ob/ob mouse model assessed as reduction in blood glucose level at 150 mg/kg, po bid for 8 days relative to control. The class given is functional. The settings on record: 192 h.

SMILES strings stand for the structures.

T4 sequence (P54619 whole entry, one chain of several): as the sequence (P54619 whole entry, one chain of several, the tested form may be a part) above
T4 sequence (Q13131 whole entry, one chain of several): as the sequence (Q13131 whole entry, one chain of several, the tested form may be a part) above
T5 sequence (P54619 whole entry, one chain of several): as the sequence (P54619 whole entry, one chain of several, the tested form may be a part) above
T5 sequence (Q13131 whole entry partner, one chain of several): as the sequence (Q13131 whole entry, one chain of several, the tested form may be a part) above
Chain of AMPK alpha2/beta2/gamma3 (Homo sapiens) (P54646 whole entry, looked up, one chain of several, the tested form may be a part): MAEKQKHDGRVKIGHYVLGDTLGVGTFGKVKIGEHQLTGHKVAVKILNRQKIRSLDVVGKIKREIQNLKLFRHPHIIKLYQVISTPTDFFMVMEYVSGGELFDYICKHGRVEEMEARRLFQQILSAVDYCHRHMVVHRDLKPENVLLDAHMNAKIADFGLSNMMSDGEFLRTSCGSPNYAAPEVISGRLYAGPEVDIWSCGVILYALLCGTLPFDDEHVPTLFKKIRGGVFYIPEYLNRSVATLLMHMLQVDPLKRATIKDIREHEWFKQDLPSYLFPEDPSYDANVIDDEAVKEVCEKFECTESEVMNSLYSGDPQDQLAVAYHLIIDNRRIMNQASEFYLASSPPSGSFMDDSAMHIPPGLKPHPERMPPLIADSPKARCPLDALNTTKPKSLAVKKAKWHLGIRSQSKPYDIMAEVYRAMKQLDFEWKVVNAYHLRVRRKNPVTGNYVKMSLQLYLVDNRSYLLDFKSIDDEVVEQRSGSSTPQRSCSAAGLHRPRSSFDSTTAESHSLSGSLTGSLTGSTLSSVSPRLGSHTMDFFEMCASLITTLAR
Chain of AMPK alpha2/beta2/gamma3 (Homo sapiens) (Q9UGI9 whole entry, looked up, one chain of several, the tested form may be a part): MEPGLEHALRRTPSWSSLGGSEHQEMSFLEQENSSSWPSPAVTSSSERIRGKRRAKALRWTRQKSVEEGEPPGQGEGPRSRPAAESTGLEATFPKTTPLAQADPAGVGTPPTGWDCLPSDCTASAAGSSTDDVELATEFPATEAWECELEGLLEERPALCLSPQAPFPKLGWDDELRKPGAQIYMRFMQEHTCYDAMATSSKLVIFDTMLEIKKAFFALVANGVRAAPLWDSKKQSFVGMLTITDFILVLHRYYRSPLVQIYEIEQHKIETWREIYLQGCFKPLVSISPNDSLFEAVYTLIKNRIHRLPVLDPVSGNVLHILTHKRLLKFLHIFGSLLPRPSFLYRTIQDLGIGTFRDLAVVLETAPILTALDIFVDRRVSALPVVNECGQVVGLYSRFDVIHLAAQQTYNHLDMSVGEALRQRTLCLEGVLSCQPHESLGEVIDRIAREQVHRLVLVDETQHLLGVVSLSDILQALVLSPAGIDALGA
Chain of AMPK alpha2/beta2/gamma1 (Homo sapiens) (P54619 whole entry, looked up, one chain of several, the tested form may be a part): as the sequence (P54619 whole entry, one chain of several, the tested form may be a part) above
Chain of AMPK alpha2/beta2/gamma1 (Homo sapiens) (P54646 whole entry, looked up, one chain of several, the tested form may be a part): as the sequence (P54646 whole entry, looked up, one chain of several, the tested form may be a part) above

What is called EC50 is the concentration that produces a half-maximal response. Usually Emax stands for the greatest response seen or fitted, relative to the assay's reference. Regarding `COc1cc(C(O)=C2C(=O)Nc3cc(Cl)c(-c4ccc5c(ccn5C)c4)cc32)on1`, the EC50 in test [1] is 0.7 nM. Besides, the results for the Activity in [2] and in test [3] were 132% and 114%, respectively. Also, the Emax in test [4] was found to be 256%.

For the compound `O=C(O)c1n[nH]c2cc(Cl)c(-c3ccc(C4(O)CCC4)cc3)cc12`, the EC50 in test [5] was found to be 8.3 nM. The %max in [6] stood at 80%.

Broadly, the Kd is a measure of binding affinity in units of concentration. Compound `N#Cc1c(O)c2c(-c3ccc(-c4ccccc4O)cc3)c(Cl)sc2[nH]c1=O` returned a Kd in test [7] of 74 nM.

Regarding `CS(=O)(=O)Nc1ccc(-c2ccc(-c3nc4nc(O[C@@H]5CO[C@H]6[C@@H]5OC[C@H]6O)[nH]c4cc3Cl)cc2)c(F)c1`, the EC50 in test [8] was determined as 3 nM.

Take `Cc1cc(-c2ccc(/C=C3\S/C(=N\c4ccc(Cl)c(C(=O)O)c4)NC3=O)o2)c([N+](=O)[O-])cc1C`: the EC50 in test [9] amounted to 300 nM.

With `O=C(O)c1c[nH]c2ccc(-c3ccc(-c4c(O)cccc4O)cc3)cc12`, the EC50 in [10] is below 500 nM; in test [11] it was below 5000 nM.

For the compound `O=C(O)c1ccc2c(c1)C1(CC1)CC(c1cc(Cl)ccc1F)N2` (configuration not stated), in test [12], the EC50 is 1240 nM.

Consider `N#Cc1c(O)c2c(-c3ccc(-c4ccccc4O)cc3)csc2[nH]c1=O`, for which, in test [13], the EC50 turned out to be 800 nM.

Consider `Oc1cccc(O)c1-c1ccc(-c2cc3nc(O[C@@H]4CO[C@H]5[C@@H]4OC[C@H]5O)[nH]c3cc2Cl)cc1`, for which the EC50 in test [14] stood at 11 nM; in test [16], 27 nM; in [18], 4 nM; in test [20], 2 nM; in test [22], 4 nM. Also, the fold change (FC) came to 27 in [15]; 13 in [17]; 10 in [19]; 13 in [21]; 16 in test [23].

As to `C(=N\c1cnc2ccccc2c1)/c1ccc2ccccc2n1`, the fold change (FC) in [24] is 2.7. In test [25], the EC50 was determined as 1800 nM.

In general, inhibition in vivo refers to the relative decrease from the control value, in per cent. For the compound `O=c1[nH]c2sc(Cl)c(-c3ccc4c(c3O)CCCC4)c2c(O)c1-c1ccccc1`, in [26], the Activity is above 130%. Moreover, in test [27], the inhibition in vivo at 150 mg/kg stood at 41%.
